{"source": "PubChem BioAssay AID1745844", "about": "(Carcinogenic Potency Database (CPDB), 2022)", "system": "rodent lifetime carcinogenesis bioassay, tumor incidence TD50", "assay": "carcinogenic potency in animals, long-term in vivo studies, CPDB compilation (AID 1745844)", "note": "Active and inactive are the calls of the source. The rule behind the calls is not given here."}
{"smiles": "Nc1c(Cl)c(Cl)nc(C(=O)O)c1Cl", "values": [{"measurement": "carcinogen call", "setting": "mouse, strain B6C3F1, females, in feed, site: any site (literature study), lesion: several types, types named in the paper, dosed 80 weeks, study length 90 weeks", "result": "negative (inactive)"}, {"measurement": "TD50", "setting": "mouse, strain B6C3F1, females, in feed, site: liver, lesion: hepatocellular adenoma + hepatocellular carcinoma + neoplastic nodule, dosed 80 weeks, study length 90 weeks", "result": 20100, "unit": "mg/kg/day"}, {"measurement": "carcinogen call", "setting": "mouse, strain B6C3F1, males, in feed, site: any site (literature study), lesion: several types, types named in the paper, dosed 80 weeks, study length 90 weeks", "result": "negative (inactive)"}, {"measurement": "TD50", "setting": "rat, strain Fischer 344, females, in feed, site: liver, lesion: hepatocellular adenoma, dosed 104 weeks, study length 104 weeks", "result": "15800 mg/kg/day (inactive)"}, {"measurement": "carcinogen call", "setting": "rat, strain Fischer 344, females, in feed, site: thyroid gland, lesion: parafollicular-cell adenoma, dosed 104 weeks, study length 104 weeks", "result": "negative (inactive)"}, {"measurement": "TD50", "setting": "rat, strain Fischer 344, males, in feed, site: liver, lesion: hepatocellular adenoma, dosed 104 weeks, study length 104 weeks", "result": "5560 mg/kg/day (inactive)"}, {"measurement": "TD50", "setting": "rat, strain Fischer 344, males, in feed, site: liver, lesion: hepatocellular carcinoma, dosed 104 weeks, study length 104 weeks", "result": "8710 mg/kg/day (inactive)"}, {"measurement": "carcinogen call", "setting": "rat, strain Osborne-Mendel, females, in feed, site: any site (literature study), lesion: several types, types named in the paper, dosed 80 weeks, study length 113 weeks", "result": "negative (inactive)"}, {"measurement": "TD50", "setting": "rat, strain Osborne-Mendel, females, in feed, site: liver, lesion: hepatocellular adenoma + hepatocellular carcinoma + neoplastic nodule, dosed 80 weeks, study length 113 weeks", "result": 1640, "unit": "mg/kg/day"}, {"measurement": "TD50", "setting": "rat, strain Osborne-Mendel, females, in feed, site: liver, lesion: neoplastic nodule, dosed 80 weeks, study length 111 weeks", "result": 1700, "unit": "mg/kg/day"}, {"measurement": "TD50", "setting": "rat, strain Osborne-Mendel, males, in feed, site: any site (literature study), lesion: several types, types named in the paper, dosed 80 weeks, study length 113 weeks", "result": "2930 mg/kg/day (inactive)"}, {"measurement": "TD50", "setting": "rat, strain Osborne-Mendel, males, in feed, site: liver, lesion: hepatocellular adenoma + hepatocellular carcinoma + neoplastic nodule, dosed 80 weeks, study length 113 weeks", "result": 1320, "unit": "mg/kg/day"}]}
{"smiles": "CCCN=[N+]([O-])CCC", "values": [{"measurement": "TD50", "setting": "rat, strain Sprague-Dawley, males, by gavage, site: liver, lesion: hepatocellular carcinoma, dosed 26 weeks, study length 77 weeks", "result": 0.00736, "unit": "mg/kg/day"}, {"measurement": "TD50", "setting": "rat, strain Sprague-Dawley, males, by gavage, site: nasal cavity, lesion: esthesioneuroepithelioma, dosed 26 weeks, study length 77 weeks", "result": 0.000723, "unit": "mg/kg/day"}, {"measurement": "TD50", "setting": "rat, strain Sprague-Dawley, males, by gavage, site: nasal cavity, lesion: papilloma, dosed 26 weeks, study length 77 weeks", "result": 0.00736, "unit": "mg/kg/day"}, {"measurement": "TD50", "setting": "rat, strain Sprague-Dawley, males, by gavage, site: nasal cavity, lesion: several types, types named in the paper, dosed 26 weeks, study length 77 weeks", "result": 0.000596, "unit": "mg/kg/day"}, {"measurement": "TD50", "setting": "rat, strain Sprague-Dawley, males, by gavage, site: skin, lesion: keratoacanthoma, dosed 26 weeks, study length 77 weeks", "result": 0.00038, "unit": "mg/kg/day"}, {"measurement": "carcinogen call", "setting": "rat, strain Sprague-Dawley, males, by gavage, site: skin, lesion: several types, types named in the paper, dosed 26 weeks, study length 77 weeks", "result": "positive"}]}
{"smiles": "O=c1c(CO)c/c(=N/Nc2ccc(S(=O)(=O)O)c3ccccc23)c(=O)/c1=N/Nc1ccc(S(=O)(=O)O)c2ccccc12", "values": [{"measurement": "TD50", "setting": "mouse, strain Tuck, females, in feed, site: all sites, lesion: lymphosarcoma, dosed 80 weeks, study length 80 weeks", "result": "36.3 mg/kg/day (inactive)"}, {"measurement": "TD50", "setting": "mouse, strain Tuck, females, in feed, site: liver, lesion: hyperplastic nodule, dosed 80 weeks, study length 80 weeks", "result": "8440 mg/kg/day (inactive)"}, {"measurement": "carcinogen call", "setting": "mouse, strain Tuck, females, in feed, site: lung, lesion: adenoma, dosed 80 weeks, study length 80 weeks", "result": "negative (inactive)"}, {"measurement": "TD50", "setting": "mouse, strain Tuck, males, in feed, site: liver, lesion: hyperplastic nodule, dosed 80 weeks, study length 80 weeks", "result": "106000 mg/kg/day (inactive)"}, {"measurement": "carcinogen call", "setting": "mouse, strain Tuck, males, in feed, site: liver, lesion: liver-cell adenoma, dosed 80 weeks, study length 80 weeks", "result": "negative (inactive)"}, {"measurement": "carcinogen call", "setting": "mouse, strain Tuck, males, in feed, site: lung, lesion: adenoma, dosed 80 weeks, study length 80 weeks", "result": "negative (inactive)"}]}
{"smiles": "CN(C)CCN(Cc1ccsc1)c1ccccn1", "values": [{"measurement": "carcinogen call", "setting": "rat, strain Fischer 344, females, in drinking water, site: liver, lesion: several types, types named in the paper, dosed 80 weeks, study length 130 weeks", "result": "negative (inactive)"}, {"measurement": "TD50", "setting": "rat, strain Fischer 344, females, in drinking water, site: thyroid follicle, lesion: several types, types named in the paper, dosed 80 weeks, study length 130 weeks", "result": "10700 mg/kg/day (inactive)"}, {"measurement": "TD50", "setting": "rat, strain Fischer 344, males, in drinking water, site: liver, lesion: several types, types named in the paper, dosed 80 weeks, study length 130 weeks", "result": "96.8 mg/kg/day (inactive)"}, {"measurement": "carcinogen call", "setting": "rat, strain Fischer 344, males, in drinking water, site: thyroid follicle, lesion: several types, types named in the paper, dosed 80 weeks, study length 130 weeks", "result": "negative (inactive)"}]}
